Common to all, as to test: DTP human tumour cell line panel, 48 h
The subject of assay [1] is BT-549 breast.
In assay [2] the test system is CAKI-1 renal.
Assay [3] has as its system HL-60(TB) leukemia.
Assay [4] has as its system HOP-62 NSCLC.
In assay [5] the test system is HOP-92 NSCLC.
Assay [6] has as its system IGROV1 ovarian.
Assay [7] has as its system KM12 colon.
Assay [8] deals with MALME-3M melanoma.
The test system of assay [9] is MOLT-4 leukemia.
Assay [10] concerns NCI-H226 lung.
Assay [11] has as its system OVCAR-8 ovarian.
In assay [12] the test system is RPMI-8226 leukemia.
Assay [13] concerns SF-268 CNS.
Assay [14] relates to SK-MEL-28 melanoma.
Assay [15] concerns SK-MEL-5 melanoma.
For assay [16], the system named is SK-OV-3 ovarian.
Assay [17] has as its system SNB-19 CNS.
Assay [18] has as its system SW-620 colon.
Assay [19] has as its system U251 CNS.

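Interpolation was linear, between the two tested concentrations surrounding the appropriate level; five concentrations were tested over 48 hours in 96-well plates. The concentration for full growth arrest is given as TGI.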 Where a SMILES comes first, the peptide text is derived from it. The star is where a group is joined. Cbz = O=C(OCc1ccccc1)*

A word on the TGI: it is the concentration giving total growth inhibition. Low readings indicate more potent growth arrest, high ones less potent growth arrest.

With `[N-]=[N+]=CC(=O)OC1Cc2ccccc2C1`, the TGI in assay [1] is more than 100 µM; in assay [2], more than 35.3 µM; in assay [3], more than 100 µM; in assay [4] it was more than 100 µM; in [5], more than 100 µM; in assay [6], more than 100 µM. The TGI in [7], in [8], in [9], in assay [10], in assay [11] and in assay [12] was more than 100 µM throughout. The TGI in [13], in assay [14], in assay [15], in assay [16], in assay [17] and in assay [18] was more than 100 µM each time. The total growth inhibition concentration (TGI) in [19] is more than 100 µM.
As to `CC1C=CN(N(C)C)C2=C1C(=O)c1cnccc1C2=O` (centres undefined), the TGI in [1] is 1.66 µM; in assay [2], 0.597 µM; in [3] it was 4.66 µM; in assay [4], 1.42 µM; in assay [5], 3.87 µM; in [6], 1.07 µM. Besides, the TGI worked out at 2.8 µM in assay [7]; 1.49 µM in [8]; 4.06 µM in assay [9]; 2.14 µM in [10]; 3.67 µM in assay [11]; 2.65 µM in assay [12]. Moreover, the total growth inhibition concentration (TGI) in [13] worked out at 5.21 µM; in assay [14], 2.07 µM; in [15], 0.894 µM; in assay [16] it was 2.81 µM; in assay [17], 2.31 µM; in [18], 1.83 µM. In assay [19], this compound gave a TGI of 2.49 µM.
In the case of `COc1cccc2nc3c(C(=O)NCCN(C)C)cccc3cc12`, the TGI in assay [1] stood at 10.7 µM; in assay [2] it was 4.18 µM; in assay [3], 4.48 µM; in assay [4], 7.1 µM; in [5] it was 11.2 µM; in [6], 11 µM. The TGI is 13.6 µM in [7]; 4.4 µM in [8]; 21.2 µM in assay [9]; 4.15 µM in assay [10]; 3.07 µM in [11]; 19.1 µM in assay [12]. Also, the TGI in assay [13] stood at 15.5 µM; in assay [14], 9.85 µM; in [15], 3.09 µM; in [16], 4.94 µM; in assay [17] it was 15.9 µM; in assay [18] it was 4.83 µM. In assay [19], the TGI was 5.46 µM.
For the compound `COC(=O)/C=C\C(C#N)(C#N)N=Cc1cc(Br)cs1`, the total growth inhibition concentration (TGI) in assay [1] is 17.9 µM; in [2], 7.53 µM; in assay [3], 0.12 µM; in [4], 33 µM; in assay [5], 4.73 µM; in assay [6] it was 14.1 µM. Moreover, the TGI was 48 µM in assay [7]; 3.47 µM in assay [8]; more than 100 µM in assay [9]; 35.3 µM in assay [10]; 11.1 µM in assay [11]; more than 71.3 µM in assay [12]. Moreover, the total growth inhibition concentration (TGI) in assay [13] came out at 16.5 µM; in assay [14], 10.4 µM; in [15], 18.3 µM; in [16] it was 33.6 µM; in [17] it was 32.5 µM; in assay [18], 2.72 µM. For the same compound, the TGI in assay [19] came out at 29.3 µM.
Consider `Cc1ncc([N+](=O)[O-])n1CCNCCCCn1ccnc1[N+](=O)[O-]`, for which the TGI in assay [1], in [2], in assay [3], in assay [4], in assay [5] and in assay [6] was more than 100 µM in each case. For the same compound, the TGI in assay [7], in assay [8], in [9], in assay [10], in [11] and in [12] was more than 100 µM in each case. The TGI in [13], in assay [14], in [15], in assay [16], in [18] and in [19] was more than 100 µM each time.
Consider `COCOC1C=CCCCC2=CC(C)=C(CC1)O2` (centres undefined), for which the TGI in [1], in assay [2], in assay [4], in assay [5], in assay [6] and in [7] was more than 100 µM each time. Besides, the total growth inhibition concentration (TGI) in [8], in [9], in assay [10], in assay [11], in [12] and in [13] was more than 100 µM in each case. The TGI in assay [14], in assay [15], in assay [16], in assay [17], in assay [18] and in assay [19] was more than 100 µM in each case.
Turning to `C=CCN1CCC(O)(c2cc(C(=O)OCC)[nH]c2-c2cc(C)no2)C1` (centres undefined), the TGI in [1], in assay [2], in [3], in [5], in [6] and in assay [7] was more than 100 µM in each case. The TGI in assay [8], in assay [9], in assay [10], in assay [11], in assay [12] and in [13] was more than 100 µM each time. In addition, the total growth inhibition concentration (TGI) in assay [14], in assay [15], in assay [16], in [17], in assay [18] and in assay [19] was more than 100 µM in each case.
Turning to `COc1ccc(N=NC(=O)NC(CC(C)C)C(=O)NC(C)C(=O)O)cc1` (centres undefined), the TGI in assay [1], in assay [2], in assay [3], in [4], in assay [5] and in assay [6] was more than 100 µM in each case. Moreover, the TGI in assay [7], in [8], in assay [9], in assay [10], in [11] and in assay [12] was more than 100 µM each time. For the same compound, the TGI in [13], in assay [14], in assay [15], in assay [17], in [18] and in assay [19] was more than 100 µM in each case.
With `CC1(C)OC[C@@H]([C@H](O)C2C=CC(=O)S2)O1` (some centres undefined), the TGI in assay [1] was 47.5 µM; in assay [2], 72.4 µM; in [3], more than 100 µM; in [4], more than 100 µM; in assay [5] it was 58.5 µM; in assay [7], 30.1 µM. Further, the TGI in assay [8] was 43.1 µM; in [9] it was 75.2 µM; in assay [10], more than 100 µM; in assay [11], 56.4 µM; in assay [12] it was 53.4 µM; in assay [13] it was 38.8 µM. Further, the TGI in assay [15] is 45.7 µM; in assay [16] it was more than 100 µM; in assay [17], more than 100 µM; in assay [18], 98.6 µM; in [19] it was 90.4 µM.
As for `COc1ccc(/C=C2\c3cc(OC)c(OC)cc3CCN2C(=O)c2ccccc2)cc1OC`, the total growth inhibition concentration (TGI) in assay [1] is more than 100 µM; in assay [2], more than 100 µM; in [3] it was 65 µM; in [4] it was more than 100 µM; in assay [5], more than 100 µM; in [6], more than 100 µM. For the same compound, the TGI in assay [7] is more than 100 µM; in assay [8], 71.1 µM; in [9] it was 80.6 µM; in [10] it was more than 100 µM; in assay [11], more than 100 µM; in assay [12], more than 100 µM. Besides, the TGI in assay [13] was more than 100 µM; in assay [14], more than 100 µM; in assay [15], 45 µM; in assay [17], more than 100 µM; in assay [18], more than 100 µM; in [19] it was more than 100 µM.
`CC(NC(=O)C(NC(=O)OCc1ccccc1)C(C)C)C(=O)NCC(=O)O` (stereo not drawn) (Cbz-Val-Ala-Gly-OH; configuration not given here): the TGI in assay [1], in [2], in assay [4], in [5], in assay [6] and in assay [7] was more than 100 µM throughout. The TGI in [8], in assay [9], in assay [10], in assay [11], in [12] and in assay [13] was more than 100 µM throughout. The TGI in assay [14], in [15], in [16], in assay [17], in assay [18] and in [19] was more than 100 µM each time.
In the case of `COc1ccc(-c2cc3ccccc3oc2=O)cc1OC`, the TGI in assay [1], in [2], in assay [3], in assay [4], in [5] and in assay [6] was more than 100 µM each time. In addition, the TGI in assay [7], in [8], in assay [9], in assay [10], in assay [11] and in assay [12] was more than 100 µM throughout. The TGI in [13] was more than 100 µM; in [15], more than 100 µM; in assay [16], 71 µM; in assay [17] it was more than 100 µM; in assay [18] it was more than 100 µM; in [19], more than 100 µM.
Regarding `CC(=O)OCC1OC(n2c(C)cc(C)c(C#N)c2=S)C(OC(C)=O)C(OC(C)=O)C1OC(C)=O` (centres undefined), the total growth inhibition concentration (TGI) in assay [1], in assay [2], in assay [3], in [4], in assay [5] and in assay [6] was more than 100 µM each time. The TGI in assay [7], in assay [8], in assay [9], in assay [10], in assay [11] and in [12] was more than 100 µM in each case. The TGI in [13], in [14], in assay [15], in assay [17] and in [19] was more than 100 µM each time.
Turning to `COC(=O)C1=C(O)c2ccc(Cl)cc2S(=O)(=O)N1C`, the TGI in assay [1], in assay [2], in assay [3], in assay [5], in [6] and in assay [7] was more than 100 µM throughout. Besides, the TGI in assay [8], in assay [9], in assay [12], in assay [13], in assay [14] and in assay [15] was more than 100 µM in each case. The TGI in assay [16], in assay [17], in assay [18] and in assay [19] was more than 100 µM throughout.
Consider `O=c1oc2c/c(=C\c3ccc([N+](=O)[O-])cc3)c(=O)c3cccc1c3-2`, for which the TGI in assay [1], in assay [3], in assay [4], in assay [5], in assay [6] and in [7] was more than 100 µM each time. The total growth inhibition concentration (TGI) in assay [8], in [9], in [11], in [12], in assay [13] and in [14] was more than 100 µM each time. In addition, the concentration for total growth inhibition (TGI) in [15], in assay [16], in assay [17], in assay [18] and in assay [19] was more than 100 µM each time.
